Assay results as given in ChEMBL document CHEMBL1201862, “PubChem BioAssay data set” (2004).
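1) Cells in 96-well plates. 2) Compound, 48 h, 5 concentrations. 3) Linear interpolation between surrounding doses. 4) Unreached endpoint = highest concentration. Abbreviation: GI50, concentration required for 50% inhibition of growth.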 Active and inactive are the calls of the source. Rule as the data show it: active = GI50 up to about 1.1 µM and inactive = higher.

Tests used:
Assay in all cases: NCI anticancer screen, dose series, 48 h
[1] = test system: MOLT-4
[2] = test system: OVCAR-5
[3] = test system: KM12
[4] = test system: EKVX
[5] = test system: OVCAR-3
[6] = test system: DLD-1
[7] = test system: SF-268
[8] = test system: RXF 393
[9] = test system: HL-60
[10] = test system: Hs-578T
[11] = test system: PC-3
[12] = test system: NCI-H460
[13] = test system: SK-MEL-5
[14] = test system: SF-295
[15] = test system: DU-145
[16] = test system: MDA-N
[17] = test system: SW-620
[18] = test system: U-251
[19] = test system: SR
[20] = test system: HT-29
[21] = test system: TK-10
[22] = test system: MDA-MB-231
[23] = test system: NCI-H522
[24] = test system: SN12C
[25] = test system: 786-0
[26] = test system: Malme-3M
[27] = test system: CAKI-1
[28] = test system: MDA-MB-435
[29] = test system: A498
[30] = test system: SK-MEL-28
[31] = test system: SF-539
[32] = test system: LOX IMVI
[33] = test system: DMS-273
[34] = test system: SNB-19
[35] = test system: CCRF-CEM
[36] = test system: MCF7
[37] = test system: RPMI-8226
[38] = test system: SNB-75
[39] = test system: NCI-H23
[40] = test system: T47D
[41] = test system: BT-549
[42] = test system: ACHN
[43] = test system: SK-MEL-2
[44] = test system: K562
[45] = test system: HCC 2998
[46] = test system: UACC-257
[47] = test system: HCT-15
[48] = test system: M14
[49] = test system: HOP-62
[50] = test system: NCI-H226
[51] = test system: UACC-62
[52] = test system: HOP-92
[53] = test system: KM-20L2
[54] = test system: IGROV-1
[55] = test system: HCT-116
[56] = test system: M19-MEL
[57] = test system: DMS-114
[58] = test system: LXFL 529
[59] = test system: OVCAR-8
[60] = test system: SK-OV-3
[61] = test system: COLO 205
[62] = test system: UO-31
[63] = test system: HOP-18
[64] = test system: A549
[65] = test system: SNB-78
[66] = test system: OVCAR-4

Measured: GI50

CCN(CC)CC[n+]1ccc2c(C)c3[nH]c4ccccc4c3c(C)c2c1
inactive: [2] 1.61 µM | [6] 1.87 µM | [8] 1.55 µM | [21] 4.41 µM | [27] 1.99 µM | [29] 3.04 µM | [41] 1.3 µM | [42] 5 µM | [49] 1.22 µM
active: [1] 0.106 µM | [3] 0.338 µM | [4] 1.02 µM | [5] 0.236 µM | [7] 0.164 µM | [9] 0.168 µM | [10] 0.0405 µM | [11] 0.553 µM | [12] 0.251 µM | [13] 0.401 µM | [14] 0.789 µM | [15] 0.422 µM | [16] 0.675 µM | [17] 0.51 µM | [18] 0.163 µM | [19] 0.608 µM | [20] 0.684 µM | [22] 0.65 µM | [23] 0.406 µM | [24] 0.285 µM | [25] 0.56 µM | [26] 0.662 µM | [28] 0.635 µM | [30] 0.533 µM | [31] 0.612 µM | [32] 0.689 µM | [33] 0.338 µM | [34] 0.144 µM | [35] 0.204 µM | [36] 0.522 µM | [37] 0.367 µM | [38] 0.276 µM | [39] 0.546 µM | [40] 0.188 µM | [43] 0.428 µM | [44] 0.214 µM | [45] 0.468 µM | [46] 0.713 µM | [48] 0.923 µM
22 µM: [47]

Nc1c(-c2ccccc2[N+](=O)[O-])nc2ccccn12
> 100 µM: [47]
inactive: [1] > 100 µM | [2] > 100 µM | [50] > 100 µM | [3] > 100 µM | [4] > 100 µM | [5] > 100 µM | [6] > 100 µM | [7] > 100 µM | [8] > 100 µM | [9] > 100 µM | [12] > 100 µM | [13] > 100 µM | [14] > 100 µM | [17] > 100 µM | [18] > 100 µM | [19] > 100 µM | [20] > 100 µM | [21] > 100 µM | [51] > 100 µM | [24] > 100 µM | [26] > 100 µM | [52] > 100 µM | [53] > 100 µM | [54] > 100 µM | [30] > 100 µM | [55] > 100 µM | [56] > 100 µM | [32] > 100 µM | [33] > 100 µM | [35] > 100 µM | [37] > 100 µM | [39] > 100 µM | [42] > 100 µM | [43] > 100 µM | [44] > 100 µM | [45] > 100 µM | [57] > 100 µM | [46] > 100 µM | [58] > 100 µM | [59] > 100 µM | [48] > 100 µM | [60] > 100 µM | [61] > 100 µM | [62] > 100 µM | [49] > 100 µM

CCn1cnnc1-c1nsc2ccccc12
active: [38] 0.369 µM
inactive: [1] > 10 µM | [2] 7.52 µM | [3] > 100 µM | [4] 26.9 µM | [5] 65.9 µM | [7] > 100 µM | [8] 23.2 µM | [9] > 100 µM | [12] > 100 µM | [13] 83.8 µM | [63] > 100 µM | [17] > 100 µM | [18] > 100 µM | [19] > 100 µM | [20] > 100 µM | [21] > 100 µM | [51] > 100 µM | [24] > 100 µM | [64] > 100 µM | [52] 45.3 µM | [53] > 100 µM | [54] > 100 µM | [65] > 100 µM | [30] > 100 µM | [55] > 100 µM | [56] > 100 µM | [31] > 100 µM | [32] > 100 µM | [33] > 100 µM | [66] > 100 µM | [34] > 100 µM | [35] > 100 µM | [37] > 100 µM | [39] > 100 µM | [42] > 100 µM | [43] > 100 µM | [44] 68.1 µM | [45] > 100 µM | [57] > 100 µM | [46] > 100 µM | [58] > 100 µM | [59] > 100 µM | [48] > 100 µM | [61] > 100 µM | [62] > 100 µM | [49] > 100 µM
> 100 µM: [47]
